Measurements: patent US10265321B2, “Uses of salt-inducible kinase (SIK) inhibitors” (Dana-Farber Cancer Institute, Inc., priority 2014, dated 2019)

What was measured:
[1] = tested on: human MΦs or DCs; test: Cytokine production by human macrophages and dendritic cells from PBMCs (ELISA); type: cell-based; details: 0.5 μM, 24 hr, zymosan 18 hr
Procedure: Heparinized blood from healthy donors was obtained from Research Blood Components. Peripheral blood mononuclear cells (PBMCs) were obtained by density centrifugation of blood diluted 50% (vol/vol) with PBS over Ficoll-Paque (Pharmacia Biotech). PBMCs were further purified by plastic adherence for 1 hr and washed 5× with PBS. Monocytes within the PBMC pool were differentiated towards DCs in X-VIVO media (Lonza) supplemented with IL-4 (50 ng/mL, R&D Systems) and GM-CSF (50 ng/mL, R&D Systems) or macrophages in X-VIVO media supplemented with GM-CSF (5 ng/mL) and IFN-γ (5 ng/mL; PeproTech) for 7 days as described previously (Smeekens S P, et al. (2013) Functional genomics identifies type I interferon pathway as central for host defense against Candida albicans. Nature communications 4:1342). After third day, half of the culture medium was replaced by fresh DC/macrophages differentiation medium.
After stimulation of cells with microbial ligands, the culture medium was removed, clarified by centrifugation for 10 min at 14,000×g, and the concentration of TNF-α, IL-6, IL-10, IL-12p40, IL-1β and RANTES were measured using FlexSet Cytokine Bead Array (BD Biosciences) according to the manufacturer's instructions. Where indicated, ELISAs were used to detect IL-10 and IL-12p70 (BD Biosciences) according to the manufacturer's instructions. […]

[2] = biological target: T1, SIK2 (Homo sapiens, UniProt Q9H0K1); test: Protein kinase assay ([γ-32P] ATP, phosphocellulose paper) against SIK2; type: biochemical; details: for remaining activity at 0.1 µM / remaining activity at 1 µM: DMSO set to 100%; for remaining activity at 0.1 µM: read-out: Activity of protein kinase treated with 0.1 μM of I-1 (% control (DMSO)) SIK2; for remaining activity at 1 µM: read-out: Activity of protein kinase treated with 1 μM of I-1 (% control (DMSO)) SIK2; for IC50: read-out: Enzyme Inhibition IC50 SIK2
T1 construct: made in house
T1 sequence (Q9H0K1 whole entry): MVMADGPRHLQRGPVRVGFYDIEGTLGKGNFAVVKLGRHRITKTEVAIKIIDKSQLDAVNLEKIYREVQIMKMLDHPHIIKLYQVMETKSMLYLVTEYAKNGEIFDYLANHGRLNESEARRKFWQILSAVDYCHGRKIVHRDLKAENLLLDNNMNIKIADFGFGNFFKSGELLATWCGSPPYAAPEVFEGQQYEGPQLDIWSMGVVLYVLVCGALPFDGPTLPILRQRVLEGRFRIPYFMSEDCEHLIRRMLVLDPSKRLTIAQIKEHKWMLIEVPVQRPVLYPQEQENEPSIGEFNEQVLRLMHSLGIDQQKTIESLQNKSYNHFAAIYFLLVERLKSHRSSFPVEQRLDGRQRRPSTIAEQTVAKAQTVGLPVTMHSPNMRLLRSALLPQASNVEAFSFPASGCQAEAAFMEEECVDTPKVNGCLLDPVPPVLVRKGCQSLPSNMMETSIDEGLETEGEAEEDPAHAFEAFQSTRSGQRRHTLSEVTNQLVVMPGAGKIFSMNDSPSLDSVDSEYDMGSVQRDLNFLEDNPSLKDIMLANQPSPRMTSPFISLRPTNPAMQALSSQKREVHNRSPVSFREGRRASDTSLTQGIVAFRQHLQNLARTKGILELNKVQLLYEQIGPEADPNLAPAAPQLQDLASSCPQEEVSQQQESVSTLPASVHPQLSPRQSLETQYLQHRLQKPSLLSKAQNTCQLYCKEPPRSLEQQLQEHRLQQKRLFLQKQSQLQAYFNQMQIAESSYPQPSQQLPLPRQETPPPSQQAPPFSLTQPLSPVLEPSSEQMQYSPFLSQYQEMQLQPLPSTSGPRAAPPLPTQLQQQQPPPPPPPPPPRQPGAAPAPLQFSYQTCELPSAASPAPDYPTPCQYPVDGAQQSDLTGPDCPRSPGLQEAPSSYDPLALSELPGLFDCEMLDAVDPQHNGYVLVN
Procedure: (§1) Bone marrow-derived DCs were differentiated from C57BL/6 bone marrow in the presence of GM-CSF-conditioned media. CD11c^+ CX3CR1^hi myeloid cells and CD11c^+ CX3CR1^− DCs were isolated from the small intestine lamina propria of Cx3cr1^eGFP/+ mice (12). Detection of cell-surface Thy1.1 expression on BMDCs from 10BiT reporter mice was conducted as described previously (24). Cell viability was estimated by change in total cellular ATP levels using CellTiterGlo assays (Promega). Preparation of recombinant SIK proteins and IC50 measurements were conducted as described previously (21). Total RNA was extracted using a NucleoSpin 96 RNA isolation kit (Macherey-Nagel) followed by cDNA synthesis and multiplex RT-PCR using a microfluidic dynamic array (Fluidigm). The concentrations of TNF-α, IL-6, IL-10, IL-12p40, IL-1β and RANTES in culture supernatants were detected using a FlexSet Cytometric bead array (BD Biosciences). Alternatively, IL-10 secretion was quantified using ELISA (BD Biosciences) or AlphaLISA (PerkinElmer) assays. NO production was estimated based on nitrate content in culture medium using the Greiss reagent.
(§2) In another set of experiments, the activities of the SIK inhibitors described herein against SIK were determined according to the methods reported in Hastie et al., Nature Protocols, 2006, 1, 968-971.
(§3) This buffer consisted of 50 mM Tris-HCl, pH 7.5, 0.1 mM EGTA, 1 mg ml^−1 bovine serum albumin and 0.1% (vol/vol) 2-mercaptoethanol.
(§4) An assay buffer of 500 mM Tris-HCl, pH 7.5, 1 mM EGTA, and 100 mM magnesium acetate was used for the protein kinase assay.
(§5) The specific activity of the [γ-^32P] ATP solution was 1×10^5 to 1×10^6 c.p.m. per nmol depending on what was needed to produce an optimal signal/noise ratio. Stocks of nonradioactive (“cold”) ATP were dissolved in 10 mM HEPES, and the pH of the resulting stock solutions was adjusted to 7.4. To measure the concentration of ATP, a sample of such a stock solution was diluted to 20 μM, and the absorbance of the diluted sample was measured at 259 nm. The absorbance of a 20-μM stock solution of ATP at 259 nm was about 0.31. The 1-mM solution of cold ATP was “spiked” with [γ-^32P] ATP to produce a radioactivity of 1×10^5 to 1×10^6 c.p.m. per nmol.
(§6) 1) The number of assay samples needed was determined based on, e.g., the following considerations: (i) each condition was assayed in duplicate; (ii) two controls containing peptide or protein substrate and ATP but no SIK were included to assess contamination by any free ATP not incorporated into substrate, alongside two controls lacking a peptide or protein substrate but containing ATP and SIK to correct for any incorporation of phosphate into the kinase itself (e.g., autophosphorylation); and (iii) a maximum of 40 samples were assayed manually at one time by a single person. Microcentrifuge tubes were label distinctly and were placed on ice.
(§7) 4) Dilute the SIK in enzyme dilution buffer and place on ice.
(§8) 5) Pipette 5 j±l of 10× concentrated assay buffer, 5 j±l peptide or protein substrate (the two “no-substrate” control tubes had 5 j±l water added instead of peptide or protein substrate), and 30 μl distilled water into each tube. Keep the tubes on ice.
(§9) 6) Add 5 μl diluted SIK to each tube, except for the two “no-enzyme” control tubes, which had 5 μl enzyme dilution buffer added, and still keeping the tubes on ice. In some cases, premixed “cocktails” of assay components were prepared containing peptide or protein substrate, assay buffer, and distilled water to limit the number of additions to each assay tube. Each of steps 7 to 14 was done behind a plexiglass shield.
(§10) 7) Insert each tube into the water bath at intervals of 15 s to allow the assay mixture to reach 30° C. Begin the SIK reactions by adding 5 μl of 1 mM [γ-^32P] ATP to each tube at intervals of 15 s. Close each tube, vortex for 1 s to mix the contents and immediately replace in a rack in the water bath. Incubate for 10 min at 30° C. […]

[3] = biological target: T2, SIK3 (Homo sapiens, UniProt Q9Y2K2); test: Protein kinase assay ([γ-32P] ATP, phosphocellulose paper) against SIK3; type: biochemical; details: for remaining activity at 0.1 µM / remaining activity at 1 µM: DMSO set to 100%; for remaining activity at 0.1 µM: read-out: Activity of protein kinase treated with 0.1 μM of I-1 (% control (DMSO)) SIK3; for remaining activity at 1 µM: read-out: Activity of protein kinase treated with 1 μM of I-1 (% control (DMSO)) SIK3; for IC50: read-out: Enzyme Inhibition IC50 SIK3
T2 construct: made in house
T2 sequence (Q9Y2K2 whole entry): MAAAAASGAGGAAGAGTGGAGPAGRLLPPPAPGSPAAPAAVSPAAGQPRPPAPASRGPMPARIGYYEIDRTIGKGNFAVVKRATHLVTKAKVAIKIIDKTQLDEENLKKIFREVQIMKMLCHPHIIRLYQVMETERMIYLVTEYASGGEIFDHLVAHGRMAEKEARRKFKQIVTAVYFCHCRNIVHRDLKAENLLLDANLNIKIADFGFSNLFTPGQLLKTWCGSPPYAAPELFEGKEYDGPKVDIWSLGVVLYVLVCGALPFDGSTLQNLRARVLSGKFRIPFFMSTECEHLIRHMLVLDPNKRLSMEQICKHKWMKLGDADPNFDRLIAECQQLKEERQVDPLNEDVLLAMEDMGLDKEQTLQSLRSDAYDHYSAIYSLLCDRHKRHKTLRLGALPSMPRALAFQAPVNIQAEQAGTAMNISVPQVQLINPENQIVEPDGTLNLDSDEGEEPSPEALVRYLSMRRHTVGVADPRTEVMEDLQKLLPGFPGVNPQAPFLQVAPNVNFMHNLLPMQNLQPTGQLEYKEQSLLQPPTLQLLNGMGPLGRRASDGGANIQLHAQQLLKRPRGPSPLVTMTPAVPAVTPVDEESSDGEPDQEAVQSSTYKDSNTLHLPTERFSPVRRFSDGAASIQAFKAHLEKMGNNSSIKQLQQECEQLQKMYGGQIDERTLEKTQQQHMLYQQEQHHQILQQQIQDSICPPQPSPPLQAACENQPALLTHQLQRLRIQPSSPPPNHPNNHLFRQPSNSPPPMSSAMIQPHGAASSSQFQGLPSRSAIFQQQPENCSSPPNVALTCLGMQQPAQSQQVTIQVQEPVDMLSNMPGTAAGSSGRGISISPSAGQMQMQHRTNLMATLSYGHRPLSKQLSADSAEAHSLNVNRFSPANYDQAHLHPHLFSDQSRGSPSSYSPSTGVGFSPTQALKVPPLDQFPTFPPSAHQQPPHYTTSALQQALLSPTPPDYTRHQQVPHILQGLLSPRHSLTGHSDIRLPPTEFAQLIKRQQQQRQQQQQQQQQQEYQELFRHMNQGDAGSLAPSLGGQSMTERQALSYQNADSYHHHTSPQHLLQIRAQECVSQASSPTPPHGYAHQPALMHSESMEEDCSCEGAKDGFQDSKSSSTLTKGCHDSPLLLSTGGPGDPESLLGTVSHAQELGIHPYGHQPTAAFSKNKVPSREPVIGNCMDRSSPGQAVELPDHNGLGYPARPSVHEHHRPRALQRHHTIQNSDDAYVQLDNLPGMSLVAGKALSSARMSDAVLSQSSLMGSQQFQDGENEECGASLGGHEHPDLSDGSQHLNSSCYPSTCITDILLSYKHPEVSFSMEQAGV
Procedure: as §1, §2, §3, §4, §5, §6, §7, §8, §9, §10

| remaining activity at 0.1 µM [2] [%] | remaining activity at 1 µM [2] [%] | IC50 [2] [µM] | remaining activity at 0.1 µM [3] [%] | remaining activity at 1 µM [3] [%] | IC50 [3] [µM] | Structure (SMILES) | IL-10 production by human MΦs or DCs [1] | IL-12p70 secretion by human MΦs or DCs [1] |
| --- | --- | --- | --- | --- | --- | --- | --- | --- |
|  |  |  |  |  |  | COc1ccc(N(C(=O)Nc2c(C)cccc2C)c2cc(Nc3ccc(N4CCN(C)CC4)cc3)ncn2)c(OC)c1 [HG-9-91-01] | enhanced IL-10 production | dramatically reducing IL-12p70 secretion |
| 10 | 5 | 0.00972 | 33 | 13 | 0.0891 | Cc1cccc(C)c1NC(=O)N1C/C=C\COc2cccc(c2)Nc2cc1ncn2 [I-1] |  |  |
| 37 | 9 | 0.0651 | 45 | 16 | 0.12 | CCN1CCN(c2ccc(Nc3cc(-n4ccnc4Nc4c(C)cccc4C)ncn3)cc2)CC1 [II-1, 6-(2-((2,6-dimethylphenyl)amino)-1H-imidazol-1-yl)-N-(4-(4-ethylpiperazin-1-yl)phenyl)pyrimidin-4-amine] |  |  |
